# Measurements: article PMC9518264, “Design and synthesis of novel quinazolinone-based derivatives as EGFR inhibitors with antitumor activity” (Journal of Enzyme Inhibition and Medicinal Chemistry, 2022)
# What was measured:
# CCRF-CEM = assay: cells; assay type: cell-based; settings: Homo sapiens, 10 μM, read-out: growth inhibition % (GI%)
# K-562 = assay: cells; assay type: cell-based; settings: Homo sapiens, K562; K-562; 10 μM; read-out: growth inhibition % (GI%)
# MOLT-4 = assay: cells; assay type: cell-based; settings: Homo sapiens; MOLT-4; 10 μM; read-out: growth inhibition % (GI%)
# RPMI-8226 = assay: cells; assay type: cell-based; settings: Homo sapiens; RPMI-8226; 10 μM; read-out: growth inhibition % (GI%)
# SR = assay: cells; assay type: cell-based; settings: Homo sapiens, 10 μM, read-out: growth inhibition % (GI%)
# A549/ATCC = assay: cells; assay type: cell-based; settings: Homo sapiens; A549/ATCC; 10 μM; read-out: growth inhibition % (GI%)
# EKVX = assay: cells; assay type: cell-based; settings: Homo sapiens, 10 μM, read-out: growth inhibition % (GI%)
# HOP-92 = assay: cells; assay type: cell-based; settings: Homo sapiens; HOP-92; 10 μM; read-out: growth inhibition % (GI%)
# NCI-H226 = assay: cells; assay type: cell-based; settings: Homo sapiens; NCI-H226; 10 μM; read-out: growth inhibition % (GI%)
# NCI-H322M = assay: cells; assay type: cell-based; settings: Homo sapiens, 10 μM, read-out: growth inhibition % (GI%)
# NCI-H460 = assay: cells; assay type: cell-based; settings: Homo sapiens; NCI-H460; 10 μM; read-out: growth inhibition % (GI%)
# NCI-H522 = assay: cells; assay type: cell-based; settings: Homo sapiens; NCI-H522; 10 μM; read-out: growth inhibition % (GI%)
# COLO-205 = assay: cells; assay type: cell-based; settings: Homo sapiens; COLO-205; 10 μM; read-out: growth inhibition % (GI%)
# HCC-2998 = assay: cells; assay type: cell-based; settings: Homo sapiens; HCC-2998; 10 μM; read-out: growth inhibition % (GI%)
# HCT-116 = assay: cells; assay type: cell-based; settings: Homo sapiens; HCT-116; 10 μM; read-out: growth inhibition % (GI%)
# HCT-15 = assay: cells; assay type: cell-based; settings: Homo sapiens; HCT-15; 10 μM; read-out: growth inhibition % (GI%)
# HT29 = assay: cells; assay type: cell-based; settings: Homo sapiens, HT-29; HT29; 10 μM; read-out: growth inhibition % (GI%)
# KM12 = assay: cells; assay type: cell-based; settings: Homo sapiens; KM12; 10 μM; read-out: growth inhibition % (GI%)
# SF-268 = assay: cells; assay type: cell-based; settings: Homo sapiens; SF-268; 10 μM; read-out: growth inhibition % (GI%)
# SF-295 = assay: cells; assay type: cell-based; settings: Homo sapiens; SF-295; 10 μM; read-out: growth inhibition % (GI%)
# SF-539 = assay: cells; assay type: cell-based; settings: Homo sapiens; SF-539; 10 μM; read-out: growth inhibition % (GI%)
# SNB-19 = assay: cells; assay type: cell-based; settings: Homo sapiens; SNB-19; 10 μM; read-out: growth inhibition % (GI%)
# SNB-75 = assay: cells; assay type: cell-based; settings: Homo sapiens; SNB-75; 10 μM; read-out: growth inhibition % (GI%)
# U251 = assay: cells; assay type: cell-based; settings: Homo sapiens, U-251; U251; 10 μM; read-out: growth inhibition % (GI%)
# LOX IMIV = assay: cells; assay type: cell-based; settings: Homo sapiens, 60 cell; LOX IMIV; 10 μM; read-out: growth inhibition % (GI%)
# MALME-3M = assay: cells; assay type: cell-based; settings: Homo sapiens; MALME-3M; 10 μM; read-out: growth inhibition % (GI%)
# MDA-MB-435 = assay: cells; assay type: cell-based; settings: Homo sapiens; MDA-MB-435; 10 μM; read-out: growth inhibition % (GI%)
# SK-MEL-2 = assay: cells; assay type: cell-based; settings: Homo sapiens; SK-MEL-2; 10 μM; read-out: growth inhibition % (GI%)
# SK-MEL-5 = assay: cells; assay type: cell-based; settings: Homo sapiens; SK-MEL-5; 10 μM; read-out: growth inhibition % (GI%)
# UACC-257 = assay: cells; assay type: cell-based; settings: Homo sapiens; UACC-257; 10 μM; read-out: growth inhibition % (GI%)
# UACC-62 = assay: cells; assay type: cell-based; settings: Homo sapiens; UACC-62; 10 μM; read-out: growth inhibition % (GI%)
# IGROV1 = assay: cells; assay type: cell-based; settings: Homo sapiens, IGROV-1; IGROV1; 10 μM; read-out: growth inhibition % (GI%)
# OVCAR-4 = assay: cells; assay type: cell-based; settings: Homo sapiens; OVCAR-4; 10 μM; read-out: growth inhibition % (GI%)
# OVCAR-8 = assay: cells; assay type: cell-based; settings: Homo sapiens; OVCAR-8; 10 μM; read-out: growth inhibition % (GI%)
# NCI/ADR-RES = assay: cells; assay type: cell-based; settings: Homo sapiens, 10 μM, read-out: growth inhibition % (GI%)
# SK-OV-3 = assay: cells; assay type: cell-based; settings: Homo sapiens; SK-OV-3; 10 μM; read-out: growth inhibition % (GI%)
# A498 = assay: cells; assay type: cell-based; settings: Homo sapiens; A498; 10 μM; read-out: growth inhibition % (GI%)
# SN12C = assay: cells; assay type: cell-based; settings: Homo sapiens, 10 μM, read-out: growth inhibition % (GI%)
# TK-10 = assay: cells; assay type: cell-based; settings: Homo sapiens; TK-10; 10 μM; read-out: growth inhibition % (GI%)
# UO-31 = assay: cells; assay type: cell-based; settings: Homo sapiens; UO-31; 10 μM; read-out: growth inhibition % (GI%)
# PC-3 = assay: cells; assay type: cell-based; settings: Homo sapiens; PC-3; 10 μM; read-out: growth inhibition % (GI%)
# MCF7 = assay: cells; assay type: cell-based; settings: Homo sapiens; MCF7; 10 μM; read-out: growth inhibition % (GI%)
# HS 578T = assay: cells; assay type: cell-based; settings: Homo sapiens; HS 578T; 10 μM; read-out: growth inhibition % (GI%)
# BT-549 = assay: cells; assay type: cell-based; settings: Homo sapiens; BT-549; 10 μM; read-out: growth inhibition % (GI%)
# T-47D = assay: cells; assay type: cell-based; settings: Homo sapiens, T47D; T-47D; 10 μM; read-out: growth inhibition % (GI%)
# [1] = tested on: panel of 60 tumour cell lines; assay: NCI 60 cell line antiproliferative screening (SRB), whole panel or subpanels (means, ranges, words); assay type: cell-based, human
# OVCAR-3 = assay: NCI 60 cell line antiproliferative screening (SRB), Ovarian cancer; settings: Homo sapiens, OVCAR-3, read-out: growth inhibition % (GI%)
smiles,measurement,setting,value
"COc1ccc(Oc2ccc(C=NNC(=O)CSc3nc4ccccc4c(=O)n3-c3ccccc3)cc2)cc1 [6c, N'-(4–(4-methoxyphenoxy)benzylidene)-2-((4-oxo-3-phenyl-3,4-dihydroquinazolin-2-yl)thio)acetohydrazide]",inhibition at 10 µM,CCRF-CEM,< 15%
same,inhibition at 10 µM,K-562,< 15%
same,inhibition at 10 µM,MOLT-4,< 15%
same,inhibition at 10 µM,RPMI-8226,< 15%
same,inhibition at 10 µM,SR,< 15%
same,inhibition at 10 µM,A549/ATCC,< 15%
same,inhibition at 10 µM,EKVX,< 15%
same,inhibition at 10 µM,HOP-92,< 15%
same,inhibition at 10 µM,NCI-H226,< 15%
same,inhibition at 10 µM,NCI-H322M,< 15%
same,inhibition at 10 µM,NCI-H460,< 15%
same,inhibition at 10 µM,NCI-H522,< 15%
same,inhibition at 10 µM,COLO-205,< 15%
same,inhibition at 10 µM,HCC-2998,< 15%
same,inhibition at 10 µM,HCT-116,< 15%
same,inhibition at 10 µM,HCT-15,< 15%
same,inhibition at 10 µM,HT29,< 15%
same,inhibition at 10 µM,KM12,< 15%
same,inhibition at 10 µM,SF-268,< 15%
same,inhibition at 10 µM,SF-295,< 15%
same,inhibition at 10 µM,SF-539,< 15%
same,inhibition at 10 µM,SNB-19,< 15%
same,inhibition at 10 µM,SNB-75,< 15%
same,inhibition at 10 µM,U251,< 15%
same,inhibition at 10 µM,LOX IMIV,< 15%
same,inhibition at 10 µM,MALME-3M,< 15%
same,inhibition at 10 µM,MDA-MB-435,< 15%
same,inhibition at 10 µM,SK-MEL-2,< 15%
same,inhibition at 10 µM,SK-MEL-5,< 15%
same,inhibition at 10 µM,UACC-257,< 15%
same,inhibition at 10 µM,UACC-62,< 15%
same,inhibition at 10 µM,IGROV1,< 15%
same,inhibition at 10 µM,OVCAR-4,< 15%
same,inhibition at 10 µM,OVCAR-8,< 15%
same,inhibition at 10 µM,NCI/ADR-RES,< 15%
same,inhibition at 10 µM,SK-OV-3,< 15%
same,inhibition at 10 µM,A498,17.2%
same,inhibition at 10 µM,SN12C,< 15%
same,inhibition at 10 µM,TK-10,< 15%
same,inhibition at 10 µM,UO-31,< 15%
same,inhibition at 10 µM,PC-3,< 15%
same,inhibition at 10 µM,MCF7,< 15%
same,inhibition at 10 µM,HS 578T,< 15%
same,inhibition at 10 µM,BT-549,< 15%
same,inhibition at 10 µM,T-47D,< 15%
same,antiproliferative activity against all tested cell lines,[1]; 10 μM single dose,no activity
same,inhibition at 10 µM,"[1]; Homo sapiens, 60 cell, mean over the cell line panel, 10 μM, read-out: Mean growth inhibition % (mean GI%)",0%
same,Mean growth inhibition % (mean GI%),"[1]; mean over the cell line panel, 10 μM",< 0%
same,inhibition at 10 µM,OVCAR-3,< 15%
